This note sets out measurements from patent US8962793B2, “ErbB interface peptidomimetics and methods of use thereof” (The Trustees of the University of Pennsylvania, priority 2001, dated 2015).

The target of one test is T1, ErbB1 (Homo sapiens, UniProt P00533).
T1 construct: gift of Dr. Mark A. Lemmon, University of Pennsylvania School of Medicine
Put plainly: Surface plasmon resonance (Biacore) binding to immobilized ErbB1 extracellular domain. The procedure:
(§1) The designed erbB peptides were tested for binding to erbB receptors using surface plasmon resonance (Biacore) technology (described supra) using soluble erbB-1 and erbB-3. The response was plotted in real time in the form of sensorgram curves.
(§2) Binding experiments were performed with the surface plasmon resonance based biosensor instrument Biacore 3000 (Biacore AB, Uppsala, Sweden), at 25° C. […] (erbB2) and Dr. Mark A. Lemmon, Department of Biochemistry and Biophysics, University of Pennsylvania School of Medicine (erbB1 and erbB3). Immobilization of the erbB receptors in the sensor surface was performed following the standard amine coupling procedure according to manufacturer's instructions. Briefly, 35 μl of a solution containing 0.2 M N-ethyl-N′-(dimethylaminopropyl) carbodiimide (EDC) and 0.05 M N-hydroxysuccinimide (NHS), were injected at a flow rate of 5 μl/min to activate carboxyl groups on the sensor chip surface. Receptors (40 ng/ml in 10 mM NaOAc buffer, pH 5.0) were flowed over the chip surface at a flow rate of 20 μl/min until the desired level bound protein was reached. Unreacted protein was washed out and unreacted activated groups were blocked by the injection of 35 μl of 1 M ethanolamine at 5 μl/min. […] A reference surface was generated simultaneously under the same conditions but without receptor injection and used as a blank to correct for instrument and buffer artifacts. Peptides were injected at variable concentrations at 20 μl/min flow rate and binding to the receptors immobilized on the chip was monitored in real time. Each sensorgram consists of an association phase (first 240 s), reflecting binding of the injected peptide to the receptor, followed by a dissociation phase (300 s), during which the running buffer is passed over the chip and the bound peptide is being washed off the receptor surface.
For orientation: SPR reads the build-up and loss of mass on a sensor chip optically.

For the next test, the target named is T2, ErbB2 (Homo sapiens, UniProt P04626).
T2 construct: provided by Dr. Che Law, Xcyte Therapeutics, Seattle
Briefly: Surface plasmon resonance (Biacore) binding to immobilized ErbB2 extracellular domain. The procedure: The designed erbB peptides were tested for binding to erbB receptors using surface plasmon resonance (Biacore) technology (described supra) using soluble erbB-1 and erbB-3. The response was plotted in real time in the form of sensorgram curves. Dissociation constants (Kd) were determined as described (Park, et al. 2000, Nat. Biotechnol. 18:194-198).
A sensorgram for binding of B2-S22-APE peptide to erbB receptors immobilized on the sensor chip was performed.
as §2

The target in another test is T3, ErbB3 (Homo sapiens, UniProt P21860).
T3 construct: gift of Dr. Mark A. Lemmon, University of Pennsylvania School of Medicine
Put plainly: Surface plasmon resonance (Biacore) binding to immobilized ErbB3 extracellular domain. The procedure: as §1, §2

The target of test [1] is T4, erbB3-erbB1 heteromerization (Homo sapiens, UniProt P00533).
T4 construct: the ectodomains of erbB receptors were immobilized on the surface chip; erbB1 and erbB3: gift of Dr. Mark A. Lemmon
Put plainly: SPR inhibition of HRGβ1-induced binding of ErbB3 to immobilized ErbB1. Particulars: peptide 10 μm, ErbB3 300 nm, HRGβ1 5 μM. The procedure:
(§3) The effect of cysteine-knot mimetics on receptor self-associations, was examined using a Biacore assay in which the ectodomains of erbB receptors were immobilized on the surface chip and the ectodomain of erbB3 was injected at 300 nM concentrations either alone or in the presence of 5 μM hereglunin HRGβ1.
(§4) The effect of the erbB peptides on heregulin-induced receptor self-associations was studied by preinjecting them at 10 μM followed by injection of erbB3-HRGβ1 (FIG. 4; 1B, 2B, 3B).
as §2

Test [2] has as its target T5, erbB3-erbB2 heteromerization (Homo sapiens, UniProt P04626).
T5 construct: the ectodomains of erbB receptors were immobilized on the surface chip; erbB2: Dr. Che Law, Xcyte Therapeutics; erbB3: Dr. Mark A. Lemmon
Put plainly: SPR inhibition of HRGβ1-induced binding of ErbB3 to immobilized ErbB2. Particulars: peptide 10 μm, ErbB3 300 nm, HRGβ1 5 μM. The procedure: as §3, §4, §2

Test [3] has as its target T6, erbB3-erbB3 homomerization (Homo sapiens, UniProt P21860).
T6 construct: the ectodomains of erbB receptors were immobilized on the surface chip; erbB3: gift of Dr. Mark A. Lemmon
Put plainly: SPR inhibition of HRGβ1-induced binding of ErbB3 to immobilized ErbB3. Particulars: peptide 10 μm, ErbB3 300 nm, HRGβ1 5 μM. The procedure:
as §3, §4, §2

For the next test, the target named is T7, erbB2-SbdIV (Homo sapiens, UniProt P04626).
T7 construct: The DNA fragment encoding the subdomain IV of erbB2 (erbB2-SbdIV) was generated by polymerase chain reaction; GST (N); made in house; host or cells: Escherichia coli BL-21 (DE3), vector pGEX-5X-3
Put plainly: Surface plasmon resonance binding to immobilized recombinant erbB2-SbdIV. From the text: Since erbB peptides are derived from subdomain IV of different erbB receptors, this fact indicates direct involvement of subdomain IV in receptor-receptor interactions between the members of erbB receptor family.
The DNA fragment encoding the subdomain IV of erbB2 (erbB2-SbdIV) was generated by polymerase chain reaction. The upstream primer was 5′-[…]-3′ [SEQ ID NO: 44] and the downstream primer was 5′-[…]-3′. [SEQ ID NO: 45] These two primers were designed to include BamHI and Not I restriction sites, respectively, for inframe insertion into the BamHI/Not I linearized pGEX-5X-3 vector. Recombinant vector was used to infect Escherichia coli BL-21 (DE3). 100 ml of the 2XYT medium were inoculated with 10 ml of the overnight culture and grown at 37° C. until the OD600 of 0.4-0.5 was reached. IPTG was added to the medium at the final concentration of 0.1 mM and grown for 2 hrs. The cells were spun down by centrifugation at 4,000 g for 10 min and resuspended with 5 ml of cold PBS (with DTT, PMSF and aprotinin at the final concentration of 5 mM, 1 mM and 1 μg/ml respectively). After sonication on ice, Triton X-100 was added to the final concentration of 1% and the solution was rocked at 4° C. for 1 hr and centrifuged at 10,000 g for 10 min. 100 μl of glutathione sepharose bead was then added to the supernatant. It was rocked at 4° C. for 2-4 hrs, centrifuged and washed three times with PBS. 100 μl elution buffer was added followed by rotation for 10 min at room temperature, centrifugation at 300 g for 1 min and collection of the supernatant. Elutions were repeated three times and combined.
Binding experiments were performed with the surface plasmon resonance based biosensor instrument Biacore 3000 (Biacore AB, Uppsala, Sweden), at 25° C. Recombinant purified erbB receptors were provided by Dr. Che Law, Xcyte Therapeutics, Seattle, Wash. […] Peptides were injected at variable concentrations at 20 μl/min flow rate and binding to the receptors immobilized on the chip was monitored in real time. […]

[4] abbreviates: immobilized extracellular domain, surface plasmon resonance, read-out: KD (μM) ErbB1.
[5] abbreviates: immobilized extracellular domain, surface plasmon resonance, read-out: KD (μM) ErbB2.
Setting [6] is: immobilized extracellular domain, surface plasmon resonance, read-out: KD (μM) ErbB3.
[7] abbreviates: FIG. 3A, erbB receptors immobilized on the sensor chip, global fitting to 1:1 Langmurian interaction model.
[8] abbreviates: erbB2-SbdIV immobilized on the surface chip, FIG. 3B.

Read-outs that look alike come from different tables or passages of the source. Bridge positions count the residues as written; N and C are the ends. Peptide text beside a SMILES is read from it.

T6 sequence (P21860 20-643 limits assumed): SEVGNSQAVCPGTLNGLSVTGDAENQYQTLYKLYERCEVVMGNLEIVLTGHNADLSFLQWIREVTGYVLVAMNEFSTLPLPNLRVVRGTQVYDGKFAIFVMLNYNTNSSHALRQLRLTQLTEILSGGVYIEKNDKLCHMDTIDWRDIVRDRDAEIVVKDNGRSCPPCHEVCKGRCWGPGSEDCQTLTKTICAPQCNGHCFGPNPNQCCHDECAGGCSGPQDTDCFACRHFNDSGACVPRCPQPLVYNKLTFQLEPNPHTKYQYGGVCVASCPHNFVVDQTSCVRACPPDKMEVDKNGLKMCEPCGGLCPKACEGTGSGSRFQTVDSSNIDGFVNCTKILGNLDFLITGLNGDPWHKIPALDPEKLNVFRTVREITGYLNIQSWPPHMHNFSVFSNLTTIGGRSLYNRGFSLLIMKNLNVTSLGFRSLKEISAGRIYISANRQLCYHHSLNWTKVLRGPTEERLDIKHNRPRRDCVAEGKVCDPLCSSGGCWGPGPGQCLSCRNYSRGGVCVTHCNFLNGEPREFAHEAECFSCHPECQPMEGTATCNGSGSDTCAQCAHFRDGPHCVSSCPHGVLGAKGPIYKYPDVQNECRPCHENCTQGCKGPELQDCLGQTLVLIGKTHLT
T3 sequence (P21860 20-643 limits assumed): as above
T4 sequence (P00533 25-645 limits assumed, one chain of several): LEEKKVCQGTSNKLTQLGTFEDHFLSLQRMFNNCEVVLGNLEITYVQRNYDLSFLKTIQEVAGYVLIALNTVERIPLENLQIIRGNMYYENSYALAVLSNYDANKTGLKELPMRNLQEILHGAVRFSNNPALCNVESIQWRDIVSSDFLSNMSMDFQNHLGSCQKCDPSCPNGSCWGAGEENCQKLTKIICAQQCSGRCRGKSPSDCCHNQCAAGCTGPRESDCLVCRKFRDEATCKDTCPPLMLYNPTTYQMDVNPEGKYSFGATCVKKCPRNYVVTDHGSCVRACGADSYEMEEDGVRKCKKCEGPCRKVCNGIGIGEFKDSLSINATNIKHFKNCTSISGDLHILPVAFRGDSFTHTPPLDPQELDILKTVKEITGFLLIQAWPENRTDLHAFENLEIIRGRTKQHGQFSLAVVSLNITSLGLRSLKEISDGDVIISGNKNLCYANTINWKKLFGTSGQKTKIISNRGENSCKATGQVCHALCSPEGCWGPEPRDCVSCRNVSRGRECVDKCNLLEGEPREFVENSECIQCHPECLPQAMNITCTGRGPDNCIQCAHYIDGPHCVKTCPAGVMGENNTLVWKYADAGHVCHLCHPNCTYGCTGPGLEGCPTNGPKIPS
T1 sequence (P00533 25-645 limits assumed): as the sequence (P00533 25-645 limits assumed, one chain of several) above
T2 sequence (P04626 23-652 limits assumed): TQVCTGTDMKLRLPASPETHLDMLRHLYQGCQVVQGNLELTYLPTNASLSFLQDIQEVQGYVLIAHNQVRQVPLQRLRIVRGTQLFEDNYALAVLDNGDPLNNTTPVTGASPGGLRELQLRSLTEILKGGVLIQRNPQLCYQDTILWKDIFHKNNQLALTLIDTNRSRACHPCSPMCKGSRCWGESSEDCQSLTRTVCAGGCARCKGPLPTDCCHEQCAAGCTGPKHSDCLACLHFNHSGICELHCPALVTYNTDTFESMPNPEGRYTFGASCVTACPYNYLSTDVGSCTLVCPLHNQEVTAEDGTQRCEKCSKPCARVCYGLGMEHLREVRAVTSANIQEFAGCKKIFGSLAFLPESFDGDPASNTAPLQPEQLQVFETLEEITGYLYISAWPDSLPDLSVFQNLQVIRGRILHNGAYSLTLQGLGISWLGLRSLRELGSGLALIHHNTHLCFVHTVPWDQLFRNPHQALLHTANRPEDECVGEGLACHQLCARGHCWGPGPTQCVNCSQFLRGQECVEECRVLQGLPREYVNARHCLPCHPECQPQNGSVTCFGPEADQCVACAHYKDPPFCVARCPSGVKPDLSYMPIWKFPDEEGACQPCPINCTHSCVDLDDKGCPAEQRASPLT
T5 sequence (P04626 23-652 limits assumed, one chain of several): as the sequence (P04626 23-652 limits assumed) above
T7 sequence (P04626 509-657): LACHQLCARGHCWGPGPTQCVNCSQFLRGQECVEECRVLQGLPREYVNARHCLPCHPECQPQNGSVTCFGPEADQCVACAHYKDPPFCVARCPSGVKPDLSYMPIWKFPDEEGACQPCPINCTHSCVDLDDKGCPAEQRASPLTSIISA

In the case of `CC(C)C[C@@H]1NC(=O)[C@@H](NC(=O)[C@@H](N)Cc2ccc(O)cc2)CSSC[C@@H](C(=O)N[C@@H](Cc2ccc(O)cc2)C(N)=O)NC(=O)CNC(=O)[C@H](C)NC(=O)[C@H](CC(=O)O)NC(=O)[C@H](C)NC(=O)[C@H](Cc2ccc(O)cc2)NC(=O)[C@H](CCCCN)NC(=O)[C@H](Cc2c[nH]c3ccccc23)NC(=O)[C@H](C(C)C)NC1=O` [B1-S22-ALG] (H-YCLVWKYADAGCY-NH2; disulfide 2-12), the Kd at ErbB1 (setting [4]) was 0.449 µM; at ErbB2 (setting [5]), 0.371 µM; on ErbB3 (setting [6]) it was 0.288 µM. Moreover, in test [1], the “Percent Inhibition ErbB1” value is on record as 65.2%. For the same compound, the “Percent Inhibition ErbB2” value in test [2] turned out to be 71.4%. For the same compound, in test [3], the “Percent Inhibition ErbB3” value is on record as 75.1%.
Take `CC[C@H](C)[C@@H]1NC(=O)[C@@H]2CCCN2C(=O)[C@@H](NC(=O)[C@@H](N)Cc2ccc(O)cc2)CSSC[C@@H](C(=O)N[C@@H](Cc2ccc(O)cc2)C(N)=O)NC(=O)[C@H](CCC(=O)O)NC(=O)[C@H](CCC(=O)O)NC(=O)[C@H](CC(=O)O)NC(=O)[C@@H]2CCCN2C(=O)[C@H](Cc2ccccc2)NC(=O)[C@H](CCCCN)NC(=O)[C@H](Cc2c[nH]c3ccccc23)NC1=O` [B2-S22-APE] (H-YCPIWKFPDEECY-NH2; disulfide 2-12): the Kd at ErbB1 is 0.21 µM; on ErbB2 (KD (μM) ErbB2, immobilized extracellular domain, surface plasmon resonance) it was 1.53 µM; at ErbB2 (dissociation constant (Kd), FIG. 3A, koff/kon ratio), 0.21 µM; at ErbB3 it was 1.4 µM; at erbB2-SbdIV, 1.89 µM. The koff on ErbB2 (setting [7]) is 0.000685 s⁻¹; on erbB2-SbdIV (setting [8]), 0.00307 s⁻¹. In addition, the kon turned out to be 3240 M⁻¹ s⁻¹ on ErbB2 (setting [7]) and 1620 M⁻¹ s⁻¹ on erbB2-SbdIV (setting [8]). Also, in test [1], the “Percent Inhibition ErbB1” value turned out to be 80.3%. Further, in test [2], the “Percent Inhibition ErbB2” value is 51.1%. Moreover, the “Percent Inhibition ErbB3” value in test [3] is 42.7%.
As to `CC[C@H](C)[C@@H]1NC(=O)[C@@H]2CCCN2C(=O)[C@@H](NC(=O)[C@@H](N)Cc2ccc(O)cc2)CSSC[C@@H](C(=O)N[C@@H](Cc2ccc(O)cc2)C(N)=O)NC(=O)[C@H](CCC(N)=O)NC(=O)[C@H](C(C)C)NC(=O)[C@H](CC(=O)O)NC(=O)[C@@H]2CCCN2C(=O)[C@H](Cc2ccc(O)cc2)NC(=O)[C@H](CCCCN)NC(=O)[C@H](Cc2ccc(O)cc2)NC1=O` [B3-S22-APQ] (H-YCPIYKYPDVQCY-NH2; disulfide 2-12), the Kd at ErbB1 (setting [4]) turned out to be 0.472 µM; at ErbB2 (setting [5]) it was 0.549 µM; on ErbB3 (setting [6]), 1.07 µM. Moreover, the “Percent Inhibition ErbB1” value in test [1] was 69.0%. Also, in test [2], the “Percent Inhibition ErbB2” value came out at 58.1%. In addition, in test [3], the “Percent Inhibition ErbB3” value was 32.4%.
With `CC[C@H](C)[C@@H]1NC(=O)[C@H](Cc2ccccc2)NC(=O)[C@@H](NC(=O)[C@@H](N)Cc2ccc(O)cc2)CSSC[C@@H](C(=O)N[C@@H](Cc2ccc(O)cc2)C(N)=O)NC(=O)[C@H](CC(=O)O)NC(=O)[C@@H]2CCCN2C(=O)[C@H](CC(=O)O)NC(=O)[C@H](C)NC(=O)[C@H](Cc2ccc(O)cc2)NC(=O)[C@H](CCCCN)NC(=O)[C@H](Cc2ccccc2)NC1=O` [B4-S22-AFD] (H-YCFIFKYADPDCY-NH2; disulfide 2-12), the Kd came to 0.583 µM at ErbB1 (setting [4]), 0.639 µM on ErbB2 (setting [5]) and 0.394 µM on ErbB3 (setting [6]). The “Percent Inhibition ErbB1” value in test [1] is on record as 60.3%. In test [2], the “Percent Inhibition ErbB2” value is given as 54.2%. For the same compound, the “Percent Inhibition ErbB3” value in test [3] came out at 72.8%.
Regarding `CC[C@H](C)[C@@H]1NC(=O)[C@H](Cc2ccc(O)cc2)NC(=O)[C@@H](NC(=O)[C@@H](N)Cc2ccccc2)CSSC[C@@H](C(=O)N[C@@H](Cc2ccc(O)cc2)C(N)=O)NC(=O)[C@H](CCC(N)=O)NC(=O)[C@H](CC(=O)O)NC(=O)[C@H](CCC(=O)O)NC(=O)[C@H](C(C)C)NC(=O)[C@H](CCC(=O)O)NC(=O)CNC1=O` [CD4-G, reference compound] (H-FCYIGEVEDQCY-NH2; disulfide 2-11), the Kd at ErbB1 (setting [4]), at ErbB2 (setting [5]) and on ErbB3 (setting [6]) was > 1000 µM throughout. Further, the “Percent Inhibition ErbB1” value in test [1] was found to be 2.4%. Moreover, the “Percent Inhibition ErbB2” value in test [2] is −1.2%. Also, the “Percent Inhibition ErbB3” value in test [3] was found to be 3.1%.

Usually Kd stands for a measure of binding affinity in units of concentration. Usually koff stands for a measure of how fast the partners let go of each other. As usually defined, the kon is a measure of how fast the partners come together.
